Reference: PubChem BioAssay (NCI)
Values joined by “and” are separate entries in the source; they are usually repeats but may differ in a detail not shown here. Equal values may be shown once.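 48-hour exposure; five concentrations; linearly interpolated endpoints. Abbreviation: GI50, concentration required for 50% inhibition of growth. TGI marks complete inhibition of growth.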

Assays:
Assay in all cases: NCI-60 cell line screen, 48 h
[1] = system: 786-0 renal
[2] = system: A549 NSCLC
[3] = system: SF-295 CNS
[4] = system: SNB-19 CNS
[5] = system: CAKI-1 renal
[6] = system: A498 renal
[7] = system: RXF 393 renal
[8] = system: SK-MEL-5 melanoma
[9] = system: M14 melanoma
[10] = system: OVCAR-4 ovarian

Compound	GI50 [1] [µM]	TGI [1]	GI50 [2] [µM]	TGI [2]	GI50 [3]	TGI [3]	GI50 [4] [µM]	TGI [4]	GI50 [5]	TGI [5]	GI50 [6]	TGI [6]	GI50 [7] [µM]	TGI [7]	GI50 [8] [µM]	TGI [8]	GI50 [9]	TGI [9]	GI50 [10]	TGI [10]
Cn1cc(-c2ccc3c(c2)ncn3-c2ccc(CC(=O)Nc3cc(C(C)(C)C)on3)cc2)cn1	1.48	> 84.6 µM	1.49	8.76 µM	1.26 µM	> 38.8 µM	3.5	> 100 µM	0.782 µM	2.43 µM	0.122 µM	0.461 µM	0.173	0.908 µM	2.5	15.5 µM	1.1 µM	10.5 µM	0.501 µM	19.1 µM
C/C(=N\NC(=S)Nc1ccccc1)c1ccccn1	0.277	1.99 µM	0.263	2.9 µM	0.109 µM	10.7 µM	1.1	16.4 µM	0.185 µM	8.74 µM	0.207 µM	1.64 µM	0.588	2.64 µM	0.199	1.56 µM	0.0624 µM	2.17 µM	0.0362 µM	1.78 µM
COc1ccc(C2=NN(c3ccc(S(N)(=O)=O)cc3)C(c3ccc(Cl)cc3)C2)c(O)c1 (stereo unspecified)	2.22	5.15 µM	3.38	35.1 µM	3.1 µM	14.5 µM	10.8	65.1 µM	2.67 µM	8.64 µM	3.89 µM	14.5 µM	2.53	9.78 µM	6.24	19.1 µM	7.89 µM	25.2 µM	4.51 µM	37.5 µM
O=c1[nH]cnc2c1nnn2C1C=C(CO)C(O)C1O (stereo unspecified)	–	> 100 µM	–	> 100 µM	–	> 100 µM	–	> 100 µM	–	> 100 µM	–	> 100 µM	–	> 100 µM	–	> 100 µM	–	> 100 µM	–	> 100 µM
CN(C)CC1CCCC(CN(C)C)C1=O (stereo unspecified)	–	5.94 µM and 4.61 µM	–	48.1 µM and > 63.6 µM	19.3 µM and > 100 µM	35.7 µM and > 100 µM	–	68 µM and > 65.4 µM	1.39 µM and 0.259 µM	3.12 µM and 0.858 µM	19.1 µM and > 100 µM	34.5 µM and > 100 µM	–	3.29 µM and 3.25 µM	–	21 µM and 30.3 µM	1.48 µM and 6.11 µM	3.03 µM and 11.7 µM	1.89 µM and 7.01 µM	3.51 µM and 18.5 µM
COc1ccc(C(=O)Nc2ccccc2C#N)cc1	–	> 100 µM	–	> 100 µM	–	> 100 µM	–	> 100 µM	–	> 100 µM	–	> 100 µM	–	> 100 µM	–	> 100 µM	–	–	–	> 100 µM
O=C1/C(=C/c2ccccc2Cl)COc2ccccc21	–	28.5 µM	–	55.8 µM	–	37.6 µM	–	–	–	–	–	32.4 µM	–	28.9 µM	–	–	–	–	–	–
C=C(CNCCc1ccc(O)cc1)[C@@H]1CC[C@]2(CO)CC[C@]3(C)[C@H](CC[C@@H]4[C@@]5(C)CCC(NCCO)C(C)(C)[C@@H]5CC[C@]43C)[C@@H]12 (stereo partly specified)	1.25	2.58 µM	1.7	3.12 µM	1.72 µM	3.34 µM	1.63	3.03 µM	1.65 µM	3.29 µM	1.72 µM	3.72 µM	1.27	2.63 µM	1.73	3.21 µM	1.61 µM	3.13 µM	1.4 µM	3.17 µM
O=C(NCCS(=O)(=O)N1C(=O)C2CCCN2C(=O)[C@@H]1Cc1ccccc1)OCc1ccccc1 (stereo partly specified)	–	> 100 µM	–	> 100 µM	–	> 100 µM	–	> 100 µM	–	> 100 µM	–	95.9 µM	–	> 100 µM	–	> 100 µM	–	> 100 µM	–	> 100 µM
O=[N+]([O-])c1ccc([I+]c2ccccc2)cc1	1.78	–	1.93	–	1.64 µM	10.1 µM and 3.24 µM	1.63	9.99 µM and 3.03 µM	0.289 µM	15 µM and 1.58 µM	–	6.49 µM and 5.48 µM	1.87	10.8 µM and 3.76 µM	1.54	21.2 µM and 2.93 µM	1.97 µM	16.4 µM and 4.33 µM	1.67 µM	11.9 µM and 3.69 µM
COC(=O)[C@@]12C3=NO[C@]1(C(=O)OC)C(O[Si](C)(C)C(C)(C)C)C1OC(C)(C)OC1[C@@H]2[C@@H](OCc1ccccc1)CC3 (stereo partly specified)	–	> 100 µM	–	> 100 µM	–	> 100 µM	–	> 100 µM	–	–	–	> 100 µM	–	–	–	> 100 µM	–	> 100 µM	–	> 100 µM
C=C1CCC2C3(C)COC(c4cccc(Cl)c4)OC3CCC2(C)C1/C=C/C1=CCOC1=O (stereo unspecified)	> 100	> 100 µM	3.31	> 100 µM	3.59 µM	> 100 µM	> 100	> 100 µM	7.78 µM	> 100 µM	2.54 µM	> 100 µM	> 100	> 100 µM	3.39	> 100 µM	> 100 µM	> 100 µM	–	–
COc1cc(-c2[nH]ncc2CCCC(=O)Nc2ccccc2[N+](=O)[O-])ccc1O	–	> 100 µM	–	> 100 µM	–	> 100 µM	–	–	–	> 100 µM	–	> 100 µM	–	–	–	> 100 µM	–	> 100 µM	–	> 100 µM
CC/C(=C(/CC)c1ccc(OP(=O)([O-])[O-])cc1)c1ccc(OP(=O)([O-])[O-])cc1.N.N.N.N.[Pt+4].[Pt+4]	4.77	> 100 µM	2.45	8.43 µM	1.91 µM	12.2 µM	–	–	–	–	27.5 µM	61.1 µM	2.4	6.76 µM	2.22	9.34 µM	1.63 µM	6.87 µM	1.95 µM	7.54 µM
COC(=O)C1(C)CCc2c(ccc3ccccc23)C1=O (stereo unspecified)	–	> 100 µM	–	> 100 µM	–	> 100 µM	–	> 100 µM	–	41.6 µM	–	81 µM	–	67.5 µM	–	35.9 µM	–	83.8 µM	–	–
OCCC#Cc1ccccc1C#Cc1ccccc1	16.1	31.3 µM	36.3	83.2 µM	5.47 µM	19.8 µM	28.1	> 100 µM	12.6 µM	25.2 µM	–	–	–	–	12	25.3 µM	16 µM	31.6 µM	24.1 µM	72.4 µM
